What was measured:
[1] = system: ocular normotensive human patients with diabetic eye disease; assay: Phase 2 trial: IOP after subcutaneous Compound 1 alone or with intravitreal ranibizumab, diabetic macular edema; format: in vivo; settings: for Week 4 subject-level IOP change from BL, mean (SD) / Week 4 subject-level IOP, mean (SD) / Week 8 subject-level IOP change from BL, mean (SD) / Week 8 subject-level IOP, mean (SD) / Week 12 subject-level IOP change from BL, mean (SD) / Week 12 subject-level IOP, mean (SD): average of study eye and fellow eye
Protocol: IOP in patients were measured using a double-masked, parallel-group designed to assess the effects of subcutaneous (SC) Compound 1 (sodium salt) alone, or as an adjunct to intravitreal ranibizumab trial. 144 human subjects with diabetic retinopathy complicated by center-involved diabetic macular edema (DME) were randomized to 3 months of one of 3 treatments: 1) Compound 1 (15 mg) SC twice daily (BID) plus sham monthly intravitreal injection (IVT); 2) Compound 1 SC BID plus ranibizumab (0.3 mg) monthly IVT; and 3) Placebo SC BID+ranibizumab IVT. At baseline, mean age was 61.3±1.3 years; 59% of subjects were male; 82.6% had Type 2 diabetes; mean HBA1c was 7.5%±1.3%; mean best corrected visual acuity was 60.2 ETDRS letters (Snellen 20/63); and mean IOP was 15.7 mmHg±3.4. Ophthalmic safety assessments were performed at baseline and monthly during the 3-month treatment period including a single IOP measurement by applanation tonometry in both the study eye and the fellow eye at each time point. By protocol, all patients had baseline IOP<24 mmHg (ocular normotensive).
In the pre-specified safety analysis, change from baseline IOP was analyzed using a t-test (null hypothesis 0 change from baseline). The level of significance was set at 0.05. A post hoc analysis of the subject level IOP measure was the change from baseline in the average over both eyes within a subject for each timepoint. Statistical testing of each timepoint was completed using ANCOVA with baseline IOP (averaged over both eyes within a subject) as covariate. Additionally, statistical testing averaging across all timepoints was completed using a mixed-model repeated measures ANCOVA. The level of significance was set at 0.05.

[2] = system: ocular normotensive New Zealand White rabbits; assay: IOP in ocular normotensive rabbits, topical ocular or subcutaneous Compound 1; format: in vivo, rabbit
Protocol: To examine the effect of Compound 1 on IOP, Compound 1 was delivered either by subcutaneous injection, or by topical drops to ocular normotensive New Zealand White rabbits, and IOP was followed over time (FIGS. 3A-3C). For this study, 25 female New Zealand White rabbits were administered the sodium salt of Compound 1 for seven days QD or BID topically (30 μL drop) into both eyes, or twice daily subcutaneously, or vehicle twice daily topically into both eyes. Eye drops (4% Compound 1 or vehicle) were administered, with study staff masked to treatment. Five dose groups (5 rabbits per group) were tested: 1) vehicle control—15% HPβCD (+1% dextrose); 2) 1.5% (15 mg/mL) Compound 1 BID; 3) 4% (40 mg/mL) Compound 1 BID; 4) 4% (40 mg/mL) Compound 1 QD; and 5) 10 mg/kg (40 mg/mL) Compound 1 administered subcutaneously BID. IOP measurements were performed at baseline (prior to the start of dosing), and once daily on days 2-8. Prior to performing IOP measurements, 1 to 2 drops of a 0.5% proparacaine solution were applied to the eye as a topical anesthetic. IOP measurements were performed with a pneumotonometer 2 hours after morning dosing. The only exceptions were Day 8 measurements, which were performed 24 hours after the final dose. IOP data were analyzed using a mixed-design two-factor ANOVA, with time as the within-subjects factor and treatment as the between-subjects factor. IOP values for Day 7 and Day 8 were analyzed using one-way ANOVA. The change from baseline IOP on Day 7 and on Day 8 was calculated for each animal, and the resulting values were analyzed using one-way ANOVA. Area under the curve (AUC) was calculated for all morning IOP measurements throughout the study for each group; AUC values for the different groups were analyzed using one-way ANOVA. Where appropriate, post hoc testing was performed using Tukey's multiple comparisons tests. The level of significance was set at 0.05.

[3] = system: New Zealand White rabbits; assay: Local tolerance in rabbits (slit lamp biomicroscopy, McDonald-Shadduck scoring); format: in vivo, rabbit; settings: slit lamp biomicroscopy during the study
mouse eyes = assay: Outflow facility in enucleated mouse eyes (iPerfusion); format: in vivo
Protocol: An iPerfusion system was used to measure outflow facility in mice. The system is designed to measure outflow facility in paired mouse eyes having low flow rates (nL/min). Outflow facility is a measure of the ability of aqueous humor to flow from the trabecular meshwork to maintain a steady state TOP.
After three days of treatment with either Compound 1 or placebo, eyes were enucleated, and outflow facility was measured in a masked fashion. Briefly, mice were euthanized using isoflurane and freshly enucleated, paired mouse eyes were mounted on two stabilization platforms in temperature-controlled perfusion chambers by using a small amount of cyanoacrylate glue. […]
Both eyes of the mice were perfused at 9 mmHg for 45-60 min to allow acclimatization and to deliver the drug or vehicle to the outflow pathway, followed by 9 sequential pressure steps of 4.5, 6, 7.5, 9, 10.5, 12, 15, 18, and 21 mmHg. The outflow from the eye was measured at multiple pressures to calculate the outflow facility.
A non-linear flow-pressure model was used to account for the pressure dependence of outflow facility in mice. The reference facility was analyzed at a reference pressure of 8 mmHg, which approximates the physiological pressure drop across the conventional outflow pathway in living mice. […]

[4] = week 12, listed as All Compound 1
[5] = week 12, listed as Compound 1 + Sham
[6] = 10 mg/kg BID subcutaneous injection

COC(=O)N[C@@H](Cc1ccccc1)C(=O)N[C@@H](Cc1ccc(NS(=O)(=O)O)cc1)c1csc(-c2cccs2)n1 [Compound 1, 4-{(S)-2-[(S)-2-(Methoxycarbonylamino)-3-phenylpropanamido]-2-[2-(thiophen-2-yl)thiazol-4-yl]ethyl}phenylsulfamic acid]
Week 4 subject-level IOP change from BL, mean (SD) ([1]; listed as All Compound 1): −1.2 (2.92) mmHg | Week 4 subject-level IOP, mean (SD) ([1]; listed as All Compound 1): 14.5 (2.92) mmHg | Week 4 subject-level IOP change from BL, mean (SD) ([1]; listed as Compound 1 + Sham): −0.8 (3.14) mmHg | Week 4 subject-level IOP, mean (SD) ([1]; listed as Compound 1 + Sham): 14.7 (2.88) mmHg | Week 8 subject-level IOP change from BL, mean (SD) ([1]; listed as All Compound 1): −1.3 (3.17) mmHg | Week 8 subject-level IOP, mean (SD) ([1]; listed as All Compound 1): 14.5 (3.31) mmHg | Week 8 subject-level IOP change from BL, mean (SD) ([1]; listed as Compound 1 + Sham): −1.1 (3.25) mmHg | Week 8 subject-level IOP, mean (SD) ([1]; listed as Compound 1 + Sham): 14.4 (3.26) mmHg | Week 12 subject-level IOP change from BL, mean (SD) [1, 4]: −1.3 (2.93) mmHg | Week 12 subject-level IOP, mean (SD) [1, 4]: 14.5 (3.31) mmHg | Week 12 subject-level IOP change from BL, mean (SD) [1, 5]: −1.4 (2.98) mmHg | Week 12 subject-level IOP, mean (SD) [1, 5]: 14.1 (3.36) mmHg | Week 4 IOP change from BL, mean (SD) ([1]; fellow eye (FE)): −0.8 (3.36) mmHg | Week 8 IOP change from BL, mean (SD) ([1]; fellow eye (FE)): −1.1 (3.58) mmHg | Week 12 IOP change from BL, mean (SD) ([1]; fellow eye (FE), week 12): −1.4 (3.29) mmHg | Week 12 IOP, mean (SD) ([1]; fellow eye (FE), week 12): 14.0 (3.41) mmHg | Week 4 IOP change from BL, mean (SD) ([1]; study eye (SE)): −0.8 (3.34) mmHg | Week 8 IOP change from BL, mean (SD) ([1]; study eye (SE)): −1.1 (3.37) mmHg | Week 12 IOP change from BL, mean (SD) ([1]; study eye (SE), week 12): −1.4 (3.16) mmHg | IOP-lowering effect on the last day of dosing (Day 7) [2, 6]: the effect did not persist | IOP-lowering effect relative to vehicle control on Days 3 and 4 [2, 6]: significant maximum IOP-lowering effect | area under the curve for IOP values over 7 days versus vehicle, 1.5% TO BID or 10 mg/kg SC BID ([2]; 4% topical ocular QD or BID): statistically-significantly lower | time to steady-state effect on IOP ([2]; daily topical ocular dosing of 4.0%): steady-state effect on IOP was observed by Day 3 | IOP reduction, topical ocular versus subcutaneous administration ([2]; rabbits): larger with topical ocular administration than with subcutaneous administration | IOP-lowering effect versus vehicle control or 1.5% Compound 1 BID ([2]; topical ocular 4% QD and BID, 7 days): significantly larger IOP-lowering effect | IOP on Day 8, 24 hours after the last dose ([2]; two high-dose (4%) topical ocular groups): significant reduction in IOP persisted on Day 8 | adverse effects on local tolerance [3]: No adverse effects | outflow facility (mouse eyes; eyes dosed three days QD with 4% Compound 1, perfused with 10 μM, reference pressure 8 mmHg): 3.4±0.4 nL/min/mmHg | increase of outflow facility compared to control (mouse eyes; versus placebo-treated contralateral eyes): 33%

Source: patent US12064420B2, “Tie-2 activators targeting the Schlemm's canal” (EyePoint Pharmaceuticals, Inc., priority 2019, dated 2024)
